From ChEMBL document CHEMBL1201862, “PubChem BioAssay data set” (2004)
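Results reflect a 48-hour exposure of cells in 96-well plates to compound at five concentrations. GI50 = concentration required for 50% inhibition of growth.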 Activity calls are given as the source filed them. Rule as the data show it: active = GI50 up to about 1.1 µM and inactive = higher.

Assays:
Experiment in all cases: NCI-60 cell line screen, 48 h
HL-60 = system: HL-60
HT-29 = system: HT-29
MOLT-4 = system: MOLT-4
OVCAR-5 = system: OVCAR-5
SR = system: SR
786-0 = system: 786-0
A498 = system: A498
A549 = system: A549
ACHN = system: ACHN
BT-549 = system: BT-549
CAKI-1 = system: CAKI-1
CCRF-CEM = system: CCRF-CEM
COLO 205 = system: COLO 205
DU-145 = system: DU-145
EKVX = system: EKVX
HCC 2998 = system: HCC 2998
HCT-116 = system: HCT-116
HCT-15 = system: HCT-15
HOP-62 = system: HOP-62
HOP-92 = system: HOP-92
Hs-578T = system: Hs-578T
IGROV-1 = system: IGROV-1
K562 = system: K562
KM12 = system: KM12
LOX IMVI = system: LOX IMVI
M14 = system: M14
MCF7 = system: MCF7
MDA-MB-231 = system: MDA-MB-231
MDA-MB-435 = system: MDA-MB-435
Malme-3M = system: Malme-3M
NCI-H226 = system: NCI-H226
NCI-H23 = system: NCI-H23
NCI-H460 = system: NCI-H460
NCI-H522 = system: NCI-H522
NCI/ADR-RES = system: NCI/ADR-RES
OVCAR-3 = system: OVCAR-3
OVCAR-4 = system: OVCAR-4
OVCAR-8 = system: OVCAR-8
PC-3 = system: PC-3
RPMI-8226 = system: RPMI-8226
RXF 393 = system: RXF 393
SF-268 = system: SF-268
SF-295 = system: SF-295
SF-539 = system: SF-539
SK-MEL-28 = system: SK-MEL-28
SK-MEL-5 = system: SK-MEL-5
SK-OV-3 = system: SK-OV-3
SN12C = system: SN12C
SNB-19 = system: SNB-19
SNB-75 = system: SNB-75
SW-620 = system: SW-620
T47D = system: T47D
TK-10 = system: TK-10
U-251 = system: U-251
UACC-257 = system: UACC-257
UACC-62 = system: UACC-62
UO-31 = system: UO-31
MDA-N = system: MDA-N
SK-MEL-2 = system: SK-MEL-2

SMILES: CC1C(=O)C(C)C(c2ccccc2)N(C)C1c1ccccc1 (stereo not given)
- GI50 (HL-60): 39.8 µM (inactive)
- GI50 (HT-29): 47.6 µM (inactive)
- GI50 (MOLT-4): 34.5 µM (inactive)
- GI50 (OVCAR-5): 63.8 µM (inactive)
- GI50 (SR): 32.3 µM (inactive)

SMILES: CCOc1ccc(NCC2CC/C(=C\c3ccc(O)cc3)C2=O)cc1 (stereo not given)
- GI50 (786-0): 6.65 µM (inactive)
- GI50 (A498): 18.2 µM (inactive)
- GI50 (A549): 21.2 µM (inactive)
- GI50 (ACHN): 17 µM (inactive)
- GI50 (BT-549): 12.9 µM (inactive)
- GI50 (CAKI-1): 17.1 µM (inactive)
- GI50 (CCRF-CEM): 5.87 µM (inactive)
- GI50 (COLO 205): 13.6 µM (inactive)
- GI50 (DU-145): 25.7 µM (inactive)
- GI50 (EKVX): 20.5 µM (inactive)
- GI50 (HCC 2998): 18.1 µM (inactive)
- GI50 (HCT-116): 9.64 µM (inactive)
- GI50 (HCT-15): 6.9 µM
- GI50 (HL-60): 2.22 µM (inactive)
- GI50 (HOP-62): 37.8 µM (inactive)
- GI50 (HOP-92): 15.2 µM (inactive)
- GI50 (HT-29): 15.6 µM (inactive)
- GI50 (Hs-578T): 28.8 µM (inactive)
- GI50 (IGROV-1): 18.9 µM (inactive)
- GI50 (K562): 3.89 µM (inactive)
- GI50 (KM12): 12.2 µM (inactive)
- GI50 (LOX IMVI): 12.2 µM (inactive)
- GI50 (M14): 18.1 µM (inactive)
- GI50 (MCF7): 3.61 µM (inactive)
- GI50 (MDA-MB-231): 19.2 µM (inactive)
- GI50 (MDA-MB-435): 18.4 µM (inactive)
- GI50 (MOLT-4): 4.17 µM (inactive)
- GI50 (Malme-3M): 14.9 µM (inactive)
- GI50 (NCI-H226): 38.2 µM (inactive)
- GI50 (NCI-H23): 23.3 µM (inactive)
- GI50 (NCI-H460): 23.2 µM (inactive)
- GI50 (NCI-H522): 6.14 µM (inactive)
- GI50 (NCI/ADR-RES): 18 µM (inactive)
- GI50 (OVCAR-3): 12.2 µM (inactive)
- GI50 (OVCAR-4): 17.2 µM (inactive)
- GI50 (OVCAR-5): 15.6 µM (inactive)
- GI50 (OVCAR-8): 17.9 µM (inactive)
- GI50 (PC-3): 16.9 µM (inactive)
- GI50 (RPMI-8226): 4.02 µM (inactive)
- GI50 (RXF 393): 18.7 µM (inactive)
- GI50 (SF-268): 15.8 µM (inactive)
- GI50 (SF-295): 24.5 µM (inactive)
- GI50 (SF-539): 19.1 µM (inactive)
- GI50 (SK-MEL-28): 15.5 µM (inactive)
- GI50 (SK-MEL-5): 19.1 µM (inactive)
- GI50 (SK-OV-3): > 44.7 µM (inactive)
- GI50 (SN12C): 18.5 µM (inactive)
- GI50 (SNB-19): 25.5 µM (inactive)
- GI50 (SNB-75): 14.5 µM (inactive)
- GI50 (SR): 2.19 µM (inactive)
- GI50 (SW-620): 3.03 µM (inactive)
- GI50 (T47D): 19 µM (inactive)
- GI50 (TK-10): 12.7 µM (inactive)
- GI50 (U-251): 16.7 µM (inactive)
- GI50 (UACC-257): 16.9 µM (inactive)
- GI50 (UACC-62): 19.7 µM (inactive)
- GI50 (UO-31): 19.4 µM (inactive)

SMILES: CC12CCC(C(=O)OC1=O)C2(C)C (stereo not given)
- GI50 (786-0): > 100 µM (inactive)
- GI50 (A498): > 100 µM (inactive)
- GI50 (ACHN): > 100 µM (inactive)
- GI50 (CCRF-CEM): > 100 µM (inactive)
- GI50 (COLO 205): > 100 µM (inactive)
- GI50 (DU-145): > 100 µM (inactive)
- GI50 (HCC 2998): > 100 µM (inactive)
- GI50 (HCT-116): > 100 µM (inactive)
- GI50 (HCT-15): > 100 µM
- GI50 (HL-60): 32.1 µM (inactive)
- GI50 (HOP-62): > 100 µM (inactive)
- GI50 (HT-29): > 100 µM (inactive)
- GI50 (Hs-578T): > 100 µM (inactive)
- GI50 (IGROV-1): > 100 µM (inactive)
- GI50 (K562): > 100 µM (inactive)
- GI50 (KM12): > 100 µM (inactive)
- GI50 (LOX IMVI): > 100 µM (inactive)
- GI50 (M14): > 100 µM (inactive)
- GI50 (MCF7): > 100 µM (inactive)
- GI50 (MDA-MB-231): > 100 µM (inactive)
- GI50 (MDA-MB-435): > 100 µM (inactive)
- GI50 (MDA-N): > 100 µM (inactive)
- GI50 (MOLT-4): > 100 µM (inactive)
- GI50 (Malme-3M): > 100 µM (inactive)
- GI50 (NCI-H226): > 100 µM (inactive)
- GI50 (NCI-H23): 1.67 µM (inactive)
- GI50 (NCI-H460): > 100 µM (inactive)
- GI50 (NCI-H522): > 100 µM (inactive)
- GI50 (NCI/ADR-RES): > 100 µM (inactive)
- GI50 (OVCAR-3): > 100 µM (inactive)
- GI50 (OVCAR-4): > 100 µM (inactive)
- GI50 (OVCAR-5): > 100 µM (inactive)
- GI50 (OVCAR-8): > 100 µM (inactive)
- GI50 (PC-3): > 100 µM (inactive)
- GI50 (RPMI-8226): > 100 µM (inactive)
- GI50 (RXF 393): > 100 µM (inactive)
- GI50 (SF-268): > 100 µM (inactive)
- GI50 (SF-295): > 100 µM (inactive)
- GI50 (SF-539): > 100 µM (inactive)
- GI50 (SK-MEL-28): > 100 µM (inactive)
- GI50 (SK-MEL-2): 28.7 µM (inactive)
- GI50 (SK-OV-3): > 100 µM (inactive)
- GI50 (SN12C): > 100 µM (inactive)
- GI50 (SNB-19): > 100 µM (inactive)
- GI50 (SNB-75): 82.4 µM (inactive)
- GI50 (SR): 0.628 µM (active)
- GI50 (SW-620): > 100 µM (inactive)
- GI50 (T47D): > 100 µM (inactive)
- GI50 (TK-10): > 100 µM (inactive)
- GI50 (U-251): > 100 µM (inactive)
- GI50 (UACC-257): 8.81 µM (inactive)
- GI50 (UACC-62): > 100 µM (inactive)
- GI50 (UO-31): > 100 µM (inactive)
